Results from the supplement of paper PMC10307832.

Experiments:
Experiment in all cases: relative viability (nuclei count vs DMSO), 5 days (fraction); higher = more cells survive
NCI-H2126 = system: NCI-H2126
In short: (§1)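 Dosing by pin tool came one day after lung cancer cell lines were seeded in 1536-well plates, using either one drug or a fixed anchor-drug dose plus five library-drug doses (not always all listed) in √10 steps. After 5 days, nuclei were counted on 4× images. Relative viability is treated-well nuclei count divided by vehicle-well nuclei count, and values are medians of duplicate plates.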

NCI-H23 = system: NCI-H23
In short: as §1

SW 1573 = system: SW 1573
In short: as §1

LU99A = system: LU99A
In short: as §1

NCI-H3122 = system: NCI-H3122
In short: as §1

LOU-NH91 = system: LOU-NH91
In short: as §1

SW 900 = system: SW 900
In short: as §1

NCI-H1666 = system: NCI-H1666
In short: as §1

LK-2 = system: LK-2
In short: as §1

ChaGo-K-1 = system: ChaGo-K-1
In short: as §1

EMC-BAC-2 = system: EMC-BAC-2
In short: as §1

RERF-LC-KJ = system: RERF-LC-KJ
In short: as §1

SK-LU-1 = system: SK-LU-1
In short: as §1

HCC-827 = system: HCC-827
In short: as §1

EPLC-272H = system: EPLC-272H
In short: as §1

HCC-78 = system: HCC-78
In short: as §1

LXF-289 = system: LXF-289
In short: as §1

NCI-H2405 = system: NCI-H2405
In short: as §1

NCI-H2085 = system: NCI-H2085
In short: as §1

LCLC-103H = system: LCLC-103H
In short: as §1

NCI-H322M = system: NCI-H322M
In short: as §1

NCI-H1975 = system: NCI-H1975
In short: as §1

For `CC1(C)CCC(c2ccc(Cl)cc2)=C(CN2CCN(c3ccc(C(=O)NS(=O)(=O)c4ccc(N[C@H](CCN5CCOCC5)CSc5ccccc5)c(S(=O)(=O)C(F)(F)F)c4)cc3)CC2)C1` [Navitoclax] + Cc1cc(Nc2cc(N3CCN(C)CC3)nc(Sc3ccc(NC(=O)C4CC4)cc3)n2)n[nH]1 [Tozasertib] (partner 0.1 µM), the relative viability (NCI-H2126; first compound 0.005 µM) was 0.817, the relative viability (NCI-H2126; first compound 0.01581 µM) was 0.906 and the relative viability (NCI-H2126; first compound 0.05 µM) was 0.858. It also gave a relative viability (NCI-H2126; first compound 0.1581 µM) of 0.823, a relative viability (NCI-H2126; first compound 0.5 µM) of 0.749 and a relative viability (NCI-H23; first compound 0.005 µM) of 0.398. For the same molecule, the relative viability (NCI-H23; first compound 0.01581 µM) was 0.353, the relative viability (NCI-H23; first compound 0.05 µM) was 0.336 and the relative viability (NCI-H23; first compound 0.1581 µM) was 0.325. For the same molecule, the relative viability (NCI-H23; first compound 0.5 µM) was 0.352, the relative viability (SW 1573; first compound 0.005 µM) was 0.186 and the relative viability (SW 1573; first compound 0.01581 µM) was 0.147. For the same molecule, the relative viability (SW 1573; first compound 0.05 µM) was 0.173, the relative viability (SW 1573; first compound 0.1581 µM) was 0.176 and the relative viability (SW 1573; first compound 0.5 µM) was 0.103. For the same molecule, the relative viability (LU99A; first compound 0.005 µM) was 0.264, the relative viability (LU99A; first compound 0.01581 µM) was 0.355 and the relative viability (LU99A; first compound 0.05 µM) was 0.244. For the same molecule, the relative viability (LU99A; first compound 0.1581 µM) was 0.337, the relative viability (LU99A; first compound 0.5 µM) was 0.37 and the relative viability (NCI-H3122; first compound 0.005 µM) was 0.353. It also gave a relative viability (NCI-H3122; first compound 0.01581 µM) of 0.286, a relative viability (NCI-H3122; first compound 0.05 µM) of 0.481 and a relative viability (NCI-H3122; first compound 0.1581 µM) of 0.306. It also gave a relative viability (NCI-H3122; first compound 0.5 µM) of 0.373, a relative viability (LOU-NH91; first compound 0.005 µM) of 0.667 and a relative viability (LOU-NH91; first compound 0.01581 µM) of 0.627. The relative viability (LOU-NH91; first compound 0.05 µM) was 0.714, the relative viability (LOU-NH91; first compound 0.1581 µM) was 0.655 and the relative viability (LOU-NH91; first compound 0.5 µM) was 0.563. For the same molecule, the relative viability (SW 900; first compound 0.005 µM) was 0.456, the relative viability (SW 900; first compound 0.01581 µM) was 0.46 and the relative viability (SW 900; first compound 0.05 µM) was 0.385. It also gave a relative viability (SW 900; first compound 0.1581 µM) of 0.59, a relative viability (SW 900; first compound 0.5 µM) of 0.501 and a relative viability (NCI-H1666; first compound 0.005 µM) of 0.626. For the same molecule, the relative viability (NCI-H1666; first compound 0.01581 µM) was 0.638, the relative viability (NCI-H1666; first compound 0.05 µM) was 0.61 and the relative viability (NCI-H1666; first compound 0.1581 µM) was 0.587. It also gave a relative viability (NCI-H1666; first compound 0.5 µM) of 0.666, a relative viability (LK-2; first compound 0.005 µM) of 0.189 and a relative viability (LK-2; first compound 0.01581 µM) of 0.187. It also gave a relative viability (LK-2; first compound 0.05 µM) of 0.198, a relative viability (LK-2; first compound 0.1581 µM) of 0.159 and a relative viability (LK-2; first compound 0.5 µM) of 0.2. For the same molecule, the relative viability (ChaGo-K-1; first compound 0.005 µM) was 0.238, the relative viability (ChaGo-K-1; first compound 0.01581 µM) was 0.225 and the relative viability (ChaGo-K-1; first compound 0.05 µM) was 0.184. It also gave a relative viability (ChaGo-K-1; first compound 0.1581 µM) of 0.239, a relative viability (ChaGo-K-1; first compound 0.5 µM) of 0.216 and a relative viability (EMC-BAC-2; first compound 0.005 µM) of 0.273. For the same molecule, the relative viability (EMC-BAC-2; first compound 0.01581 µM) was 0.27, the relative viability (EMC-BAC-2; first compound 0.05 µM) was 0.243 and the relative viability (EMC-BAC-2; first compound 0.1581 µM) was 0.273. The relative viability (EMC-BAC-2; first compound 0.5 µM) was 0.263, the relative viability (RERF-LC-KJ; first compound 0.005 µM) was 0.507 and the relative viability (RERF-LC-KJ; first compound 0.01581 µM) was 0.369. The relative viability (RERF-LC-KJ; first compound 0.05 µM) was 0.536, the relative viability (RERF-LC-KJ; first compound 0.1581 µM) was 0.526 and the relative viability (RERF-LC-KJ; first compound 0.5 µM) was 0.464. The relative viability (SK-LU-1; first compound 0.005 µM) was 0.326, the relative viability (SK-LU-1; first compound 0.01581 µM) was 0.324 and the relative viability (SK-LU-1; first compound 0.05 µM) was 0.308. The relative viability (SK-LU-1; first compound 0.1581 µM) was 0.318, the relative viability (SK-LU-1; first compound 0.5 µM) was 0.298 and the relative viability (HCC-827; first compound 0.005 µM) was 0.437. It also gave a relative viability (HCC-827; first compound 0.01581 µM) of 0.453, a relative viability (HCC-827; first compound 0.05 µM) of 0.384 and a relative viability (HCC-827; first compound 0.1581 µM) of 0.39. The relative viability (HCC-827; first compound 0.5 µM) was 0.454, the relative viability (EPLC-272H; first compound 0.005 µM) was 0.28 and the relative viability (EPLC-272H; first compound 0.05 µM) was 0.313. For the same molecule, the relative viability (EPLC-272H; first compound 0.1581 µM) was 0.204, the relative viability (EPLC-272H; first compound 0.5 µM) was 0.242 and the relative viability (HCC-78; first compound 0.005 µM) was 0.403. The relative viability (HCC-78; first compound 0.01581 µM) was 0.594, the relative viability (HCC-78; first compound 0.1581 µM) was 0.584 and the relative viability (HCC-78; first compound 0.5 µM) was 0.428. For the same molecule, the relative viability (LXF-289; first compound 0.005 µM) was 0.192, the relative viability (LXF-289; first compound 0.01581 µM) was 0.222 and the relative viability (LXF-289; first compound 0.05 µM) was 0.15. It also gave a relative viability (LXF-289; first compound 0.1581 µM) of 0.193, a relative viability (LXF-289; first compound 0.5 µM) of 0.217 and a relative viability (NCI-H2405; first compound 0.005 µM) of 0.761. For the same molecule, the relative viability (NCI-H2405; first compound 0.01581 µM) was 0.787, the relative viability (NCI-H2405; first compound 0.05 µM) was 0.735 and the relative viability (NCI-H2405; first compound 0.1581 µM) was 0.731. It also gave a relative viability (NCI-H2405; first compound 0.5 µM) of 0.681, a relative viability (NCI-H2085; first compound 0.005 µM) of 0.804 and a relative viability (NCI-H2085; first compound 0.01581 µM) of 0.734. For the same molecule, the relative viability (NCI-H2085; first compound 0.05 µM) was 0.811, the relative viability (NCI-H2085; first compound 0.1581 µM) was 0.772 and the relative viability (NCI-H2085; first compound 0.5 µM) was 0.752. For the same molecule, the relative viability (LCLC-103H; first compound 0.005 µM) was 0.505, the relative viability (LCLC-103H; first compound 0.01581 µM) was 0.516 and the relative viability (LCLC-103H; first compound 0.05 µM) was 0.442. For the same molecule, the relative viability (LCLC-103H; first compound 0.1581 µM) was 0.404, the relative viability (LCLC-103H; first compound 0.5 µM) was 0.466 and the relative viability (NCI-H322M; first compound 0.005 µM) was 0.48. It also gave a relative viability (NCI-H322M; first compound 0.01581 µM) of 0.579, a relative viability (NCI-H322M; first compound 0.05 µM) of 0.491 and a relative viability (NCI-H322M; first compound 0.1581 µM) of 0.548. It also gave a relative viability (NCI-H322M; first compound 0.5 µM) of 0.532, a relative viability (NCI-H1975; first compound 0.005 µM) of 0.791 and a relative viability (NCI-H1975; first compound 0.01581 µM) of 0.917. For the same molecule, the relative viability (NCI-H1975; first compound 0.05 µM) was 0.714, the relative viability (NCI-H1975; first compound 0.1581 µM) was 0.734 and the relative viability (NCI-H1975; first compound 0.5 µM) was 0.815.
